Results as given in the supplement of paper PMC11208160.

Test: recombinant UMI read abundance after kanamycin selection (control-corrected) (log10(CPM+1)); higher = more efficient recombination; extreme values may be limits of the assay; sequences stand for … in AGTGCAGAGAAAATCGGCCAGTTTTCTCTGCCTGCAGTCCGCATGCCGTGGGACCCCTTGGGTTCTAACCTGTTGCCTAGATTTATGCAGCGGACTGCCTTTCTCCCAAAGTGATAAACCGG…AGGTTGGTTTCACT; site = the 11-nt donor
Procedure, shortened: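 Under IPTG (0.07 mM) plus kanamycin, or without selection, Escherichia coli carrying a UMI-tagged donor and donor-binding-loop pair library and a target plasmid for the IS621 bridge recombinase were plated in two replicates. Recombinant UMIs were PCR-amplified across the donor–target junction and sequenced. Counts were converted to CPM, averaged over replicates, scaled by control-derived factors and reported as log10(CPM+1).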
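Note: IS621 bridge recombinase in Escherichia coli cells against a fixed T5 target plasmid.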

Sequence	recombinant UMI read abundance (log10)
ATGTGGACATGGACCGGTTTTCCCGGTAATCCGTATTTGAC (site ATGTGGACTGT)	2.94
ATGTGGGCATGGACCGGTTTTCCCGGTAATCCGTATTTGGC (site ATGTAGGCTGC)	2.78
ATGTGGGCATGGACCGGTTTTCCCGGTAATCCGTATTTGGC (site ATGTCGGCTGC)	0
ATGTGGGCATGGACCGGTTTTCCCGGTAATCCGTATTTGGC (site ATGTGGGCTGC)	3.01
ATGTGGGCATGGACCGGTTTTCCCGGTAATCCGTATTTGGC (site ATGTTGGCTGC)	0.0921
ATGTGTGCATGGACCGGTTTTCCCGGTAATCCGTATTTGAC (site ATGTGTGCTGT)	2.78
ATGTTACCATGGACCGGTTTTCCCGGTAATCCGTATTTGGT (site ATGTTACCTAC)	0.0171
ATTACGGCATGGACCGGTTTTCCCGGTAATCCGTATTTGGA (site ATTACGGCTTC)	0.269
ATTACTTCATGGACCGGTTTTCCCGGTAATCCGTATTTGGG (site ATTACTTCTCC)	0.434
ATTAGAACATGGACCGGTTTTCCCGGTAATCCGTATTTGGC (site ATTAGAACTGC)	1.83
ATTAGAACATGGACCGGTTTTCCCGGTAATCCGTATTTGGC (site CTTAGAACTGC)	1.73
ATTAGAACATGGACCGGTTTTCCCGGTAATCCGTATTTGGC (site GTTAGAACTGC)	0
ATTAGAACATGGACCGGTTTTCCCGGTAATCCGTATTTGGC (site TTTAGAACTGC)	1.19
ATTAGTGCATGGACCGGTTTTCCCGGTAATCCGTATTTGGT (site AATAGTGCTAC)	0.125
ATTAGTGCATGGACCGGTTTTCCCGGTAATCCGTATTTGGT (site ACTAGTGCTAC)	0.675
ATTAGTGCATGGACCGGTTTTCCCGGTAATCCGTATTTGGT (site AGTAGTGCTAC)	0.243
ATTAGTGCATGGACCGGTTTTCCCGGTAATCCGTATTTGGT (site ATTAGTGCTAC)	1.05
ATTCCGGCATGGACCGGTTTTCCCGGTAATCCGTATTTGCT (site ATTCCGGCTAG)	0.0043
ATTCGAACATGGACCGGTTTTCCCGGTAATCCGTATTTGTT (site ATTCGAACTAA)	0.18

Sequence	recombinant UMI read abundance (log10)
ATTCGTGCATGGACCGGTTTTCCCGGTAATCCGTATTTGAT (site ATTCGTGCTAT)	0.866
ATTCGTGCATGGACCGGTTTTCCCGGTAATCCGTATTTGTA (site ATTCGTGCTTA)	0.657
ATTCGTGCATGGACCGGTTTTCCCGGTAATCCGTATTTGTG (site ATTCGTGCTCA)	0.309
ATTCTTACATGGACCGGTTTTCCCGGTAATCCGTATTTGGT (site ATTCTTACTAC)	0.37
ATTGTATCATGGACCGGTTTTCCCGGTAATCCGTATTTGAG (site ATTGTATCTCT)	1.59
ATTTAAACATGGACCGGTTTTCCCGGTAATCCGTATTTGAC (site ATTTAAACTGT)	1.18
ATTTAGACATGGACCGGTTTTCCCGGTAATCCGTATTTGGT (site ATTAAGACTAC)	0.513
ATTTAGACATGGACCGGTTTTCCCGGTAATCCGTATTTGGT (site ATTCAGACTAC)	0.475
ATTTAGACATGGACCGGTTTTCCCGGTAATCCGTATTTGGT (site ATTGAGACTAC)	0.0177
ATTTAGACATGGACCGGTTTTCCCGGTAATCCGTATTTGGT (site ATTTAGACTAC)	0.955
ATTTAGGCATGGACCGGTTTTCCCGGTAATCCGTATTTGGC (site ATATAGGCTGC)	1.64
ATTTAGGCATGGACCGGTTTTCCCGGTAATCCGTATTTGGC (site ATCTAGGCTGC)	0.928
ATTTAGGCATGGACCGGTTTTCCCGGTAATCCGTATTTGGC (site ATGTAGGCTGC)	0.42
ATTTAGGCATGGACCGGTTTTCCCGGTAATCCGTATTTGGC (site ATTTAGGCTGC)	1.93
ATTTATTCATGGACCGGTTTTCCCGGTAATCCGTATTTGAG (site ATTTATTCTCT)	1.61
ATTTCACCATGGACCGGTTTTCCCGGTAATCCGTATTTGGC (site ATTTCACCTGC)	0
ATTTCTACATGGACCGGTTTTCCCGGTAATCCGTATTTGTC (site ATTTCTACTGA)	0.00552
ATTTGAGCATGGACCGGTTTTCCCGGTAATCCGTATTTGCG (site ATTTGAGCTCG)	0.336
ATTTGTTCATGGACCGGTTTTCCCGGTAATCCGTATTTGGA (site ATTTGTTCTTC)	1.4

Sequence	recombinant UMI read abundance (log10)
CAAAAGCCATGGACCGGTTTTCCCGGTAATCCGTATTTGTC (site CAAAAGCCTGA)	0
CAAAATACATGGACCGGTTTTCCCGGTAATCCGTATTTGGC (site CAAAATACTGC)	0
CAAACACCATGGACCGGTTTTCCCGGTAATCCGTATTTGAC (site CAAACACCTGT)	0.00914
CAAACGACATGGACCGGTTTTCCCGGTAATCCGTATTTGTT (site CAAACGACTAA)	1.41
CAAAGCTCATGGACCGGTTTTCCCGGTAATCCGTATTTGAA (site CAAAGCTCTTT)	3.18
CAAAGCTCATGGACCGGTTTTCCCGGTAATCCGTATTTGAA (site CAACGCTCTTT)	0.0122
CAAAGCTCATGGACCGGTTTTCCCGGTAATCCGTATTTGAA (site CAAGGCTCTTT)	0.579
CAAAGCTCATGGACCGGTTTTCCCGGTAATCCGTATTTGAA (site CAATGCTCTTT)	0.0194
CAAATACCATGGACCGGTTTTCCCGGTAATCCGTATTTGAC (site CAAATACCTGT)	0
CAAATCCCATGGACCGGTTTTCCCGGTAATCCGTATTTGGA (site CAAATCCCTTC)	0.334
CAAATCTCATGGACCGGTTTTCCCGGTAATCCGTATTTGCA (site CAAATCTCTTG)	1.85
CAACAACCATGGACCGGTTTTCCCGGTAATCCGTATTTGAA (site CAACAACCTTT)	0.102
CAACACACATGGACCGGTTTTCCCGGTAATCCGTATTTGTG (site CAACACACTCA)	0.834
CAACGCTCATGGACCGGTTTTCCCGGTAATCCGTATTTGAA (site CAAAGCTCTTT)	0.00291
CAACGCTCATGGACCGGTTTTCCCGGTAATCCGTATTTGAA (site CAACGCTCTTT)	2.06
CAACGCTCATGGACCGGTTTTCCCGGTAATCCGTATTTGAA (site CAAGGCTCTTT)	0.00387
CAACGCTCATGGACCGGTTTTCCCGGTAATCCGTATTTGAA (site CAATGCTCTTT)	0.0343
CAACTCCCATGGACCGGTTTTCCCGGTAATCCGTATTTGCT (site CAAATCCCTAG)	0.818
CAACTCCCATGGACCGGTTTTCCCGGTAATCCGTATTTGCT (site CAACTCCCTAG)	1.86
